One block for each compound: values may come before it. Active and inactive are the calls of the source.
How the values were obtained:
[1] = target: T1, Coagulation factor XII (Homo sapiens, UniProt P00748); type: functional;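 note: activated factor XIIa alpha cleaving a fluorogenic AMC peptide substrate; inhibitor potency from loss of enzyme activity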
T1 sequence (P00748 whole entry): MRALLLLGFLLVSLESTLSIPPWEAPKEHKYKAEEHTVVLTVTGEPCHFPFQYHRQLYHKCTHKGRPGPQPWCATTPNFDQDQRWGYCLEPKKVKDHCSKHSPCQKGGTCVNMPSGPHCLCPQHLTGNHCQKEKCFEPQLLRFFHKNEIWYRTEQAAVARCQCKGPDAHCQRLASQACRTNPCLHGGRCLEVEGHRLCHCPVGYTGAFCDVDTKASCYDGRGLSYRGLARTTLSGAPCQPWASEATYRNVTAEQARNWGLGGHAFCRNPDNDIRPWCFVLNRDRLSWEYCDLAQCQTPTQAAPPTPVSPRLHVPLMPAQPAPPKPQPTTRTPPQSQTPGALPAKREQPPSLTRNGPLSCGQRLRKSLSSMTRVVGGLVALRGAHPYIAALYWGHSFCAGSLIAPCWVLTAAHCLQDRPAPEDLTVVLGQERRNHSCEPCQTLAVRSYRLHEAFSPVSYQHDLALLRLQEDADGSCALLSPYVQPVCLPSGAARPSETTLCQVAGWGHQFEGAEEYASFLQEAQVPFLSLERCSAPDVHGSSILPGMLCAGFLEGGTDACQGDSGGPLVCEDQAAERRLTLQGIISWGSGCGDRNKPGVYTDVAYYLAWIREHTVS

[2] = target: Eukaryotic translation initiation factor 4E (Mus musculus, UniProt P63073); assay: blockers of eIF4G binding by eIF4E – biochemical, TR-FRET, dose response (AID 855); type: functional;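 note: potency for disrupting eIF4E binding to eIF4GI seen as loss of FRET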
[3] = target: T2, Corticotropin-releasing factor receptor 2/Corticotropin-releasing factor-binding protein (Homo sapiens, UniProt P24387+Q13324); assay: Dose Response confirmation of uHTS hits for small molecule antagonists of the CRF-binding protein and CRF-R2 receptor complex.; type: functional; conditions: read-out: IC50_Mean
T2 sequence (Q13324 whole entry): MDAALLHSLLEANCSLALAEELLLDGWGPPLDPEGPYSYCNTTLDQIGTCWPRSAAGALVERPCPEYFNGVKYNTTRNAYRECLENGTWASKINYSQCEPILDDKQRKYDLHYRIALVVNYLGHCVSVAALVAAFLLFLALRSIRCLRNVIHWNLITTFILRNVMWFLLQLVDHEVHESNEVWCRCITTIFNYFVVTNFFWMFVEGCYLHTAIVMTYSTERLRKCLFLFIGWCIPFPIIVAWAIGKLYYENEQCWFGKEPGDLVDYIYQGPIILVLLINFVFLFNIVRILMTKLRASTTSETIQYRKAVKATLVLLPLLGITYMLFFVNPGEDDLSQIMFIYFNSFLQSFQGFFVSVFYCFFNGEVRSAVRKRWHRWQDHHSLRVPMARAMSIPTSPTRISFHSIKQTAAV
T2 sequence (P24387 whole entry): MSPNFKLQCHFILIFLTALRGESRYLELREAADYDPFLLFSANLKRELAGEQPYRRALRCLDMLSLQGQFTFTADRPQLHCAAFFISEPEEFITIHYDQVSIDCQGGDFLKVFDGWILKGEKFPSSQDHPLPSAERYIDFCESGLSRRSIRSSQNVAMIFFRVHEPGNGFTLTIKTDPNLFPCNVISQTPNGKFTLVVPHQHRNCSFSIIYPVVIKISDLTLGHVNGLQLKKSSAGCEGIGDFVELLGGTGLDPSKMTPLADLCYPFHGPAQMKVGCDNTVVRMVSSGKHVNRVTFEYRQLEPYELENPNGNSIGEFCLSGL

[4] = target: T2, Corticotropin-releasing factor receptor 2/Corticotropin-releasing factor-binding protein; assay: activators of CRF receptor 2 with binding protein – uHTS hits, confirmation (AID 602473); type: functional; conditions: read-out: EC50_Mean
[5] = target: T3, Protein skinhead-1 (Caenorhabditis elegans, UniProt P34707); type: functional
T3 sequence (P34707 whole entry): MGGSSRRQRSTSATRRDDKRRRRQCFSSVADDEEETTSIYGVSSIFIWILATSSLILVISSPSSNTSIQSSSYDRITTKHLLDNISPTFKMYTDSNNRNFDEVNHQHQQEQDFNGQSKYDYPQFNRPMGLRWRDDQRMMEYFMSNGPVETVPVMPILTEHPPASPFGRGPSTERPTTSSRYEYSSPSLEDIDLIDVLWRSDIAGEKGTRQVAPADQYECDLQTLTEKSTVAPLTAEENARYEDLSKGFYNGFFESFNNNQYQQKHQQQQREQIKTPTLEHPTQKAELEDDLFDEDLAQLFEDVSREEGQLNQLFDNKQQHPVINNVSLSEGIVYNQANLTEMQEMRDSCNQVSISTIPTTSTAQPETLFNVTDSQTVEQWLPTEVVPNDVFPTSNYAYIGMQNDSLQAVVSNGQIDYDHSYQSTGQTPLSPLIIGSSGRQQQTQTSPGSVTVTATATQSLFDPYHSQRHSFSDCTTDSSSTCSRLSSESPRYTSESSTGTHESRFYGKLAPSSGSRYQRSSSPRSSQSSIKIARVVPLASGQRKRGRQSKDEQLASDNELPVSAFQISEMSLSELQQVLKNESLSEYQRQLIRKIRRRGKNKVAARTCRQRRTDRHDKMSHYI

[6] = target: T4, High affinity choline transporter 1 (Homo sapiens, UniProt Q9GZV3); assay: human choline transporter blockers, potency – cell-based, 5-point CRC, membrane potential dye, dose response (AID 504840); type: functional
T4 sequence (Q9GZV3 whole entry): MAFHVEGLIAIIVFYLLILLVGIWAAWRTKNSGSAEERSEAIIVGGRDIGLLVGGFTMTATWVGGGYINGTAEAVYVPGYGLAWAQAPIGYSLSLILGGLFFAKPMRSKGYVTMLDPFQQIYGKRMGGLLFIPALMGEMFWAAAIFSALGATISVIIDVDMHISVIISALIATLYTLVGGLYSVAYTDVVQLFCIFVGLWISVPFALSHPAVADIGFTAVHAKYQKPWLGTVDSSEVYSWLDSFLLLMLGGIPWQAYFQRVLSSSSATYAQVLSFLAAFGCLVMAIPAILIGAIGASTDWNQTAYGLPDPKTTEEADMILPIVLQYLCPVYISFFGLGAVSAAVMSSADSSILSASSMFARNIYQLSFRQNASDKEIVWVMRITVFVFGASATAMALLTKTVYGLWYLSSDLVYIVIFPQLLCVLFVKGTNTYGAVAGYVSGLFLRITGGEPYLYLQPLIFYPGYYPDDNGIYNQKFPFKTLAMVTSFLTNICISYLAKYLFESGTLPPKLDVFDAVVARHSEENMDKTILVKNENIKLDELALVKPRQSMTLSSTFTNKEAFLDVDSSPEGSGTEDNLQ

[7] = target: Large T antigen (Simian virus 40, UniProt P03070); type: functional, Betapolyomavirus macacae;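 note: Confirmatory-stage PubChem screen for compounds that inhibit SV40 T antigen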
[8] = target: Induced myeloid leukemia cell differentiation protein Mcl-1 (Homo sapiens, UniProt Q07820); type: functional
[9] = target: T5, Fatty acid synthase (Homo sapiens, UniProt P49327); assay: inhibition of human FAS-TE enzyme activity – biochemical, endpoint fluorescence intensity, uHTS hits, dose response (AID 624327); type: functional;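 note: fluorescence from hydrolysis of an O-methyl fluorescein acyl ester substrate by the enzyme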
[10] = target: T5, Fatty acid synthase; assay: inhibition of human FAS-TE enzyme activity – biochemical, kinetic fluorescence intensity, dose response (AID 624326); type: functional;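 note: rate of fluorescence rise from hydrolysis of a fluorogenic O-methyl fluorescein ester substrate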
[11] = target: Cytochrome P450 2D6 (Homo sapiens, UniProt P10635);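 note: CYP2D6 member of a cytochrome P450 panel assay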
Chain of Cytochrome P450 2D6 (P10635 whole entry): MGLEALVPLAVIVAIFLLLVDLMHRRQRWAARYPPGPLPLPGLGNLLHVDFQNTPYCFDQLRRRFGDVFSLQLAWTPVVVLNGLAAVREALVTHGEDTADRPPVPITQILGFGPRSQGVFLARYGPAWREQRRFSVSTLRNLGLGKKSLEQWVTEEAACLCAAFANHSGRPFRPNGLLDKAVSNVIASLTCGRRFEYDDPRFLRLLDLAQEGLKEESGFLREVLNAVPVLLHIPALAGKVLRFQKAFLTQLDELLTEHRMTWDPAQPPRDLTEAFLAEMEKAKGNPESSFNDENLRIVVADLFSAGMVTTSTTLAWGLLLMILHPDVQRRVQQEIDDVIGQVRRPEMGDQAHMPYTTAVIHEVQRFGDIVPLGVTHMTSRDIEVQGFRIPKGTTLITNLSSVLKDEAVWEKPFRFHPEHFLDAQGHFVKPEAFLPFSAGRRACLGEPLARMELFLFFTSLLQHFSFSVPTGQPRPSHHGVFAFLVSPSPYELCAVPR

T5 sequence (P49327 whole entry): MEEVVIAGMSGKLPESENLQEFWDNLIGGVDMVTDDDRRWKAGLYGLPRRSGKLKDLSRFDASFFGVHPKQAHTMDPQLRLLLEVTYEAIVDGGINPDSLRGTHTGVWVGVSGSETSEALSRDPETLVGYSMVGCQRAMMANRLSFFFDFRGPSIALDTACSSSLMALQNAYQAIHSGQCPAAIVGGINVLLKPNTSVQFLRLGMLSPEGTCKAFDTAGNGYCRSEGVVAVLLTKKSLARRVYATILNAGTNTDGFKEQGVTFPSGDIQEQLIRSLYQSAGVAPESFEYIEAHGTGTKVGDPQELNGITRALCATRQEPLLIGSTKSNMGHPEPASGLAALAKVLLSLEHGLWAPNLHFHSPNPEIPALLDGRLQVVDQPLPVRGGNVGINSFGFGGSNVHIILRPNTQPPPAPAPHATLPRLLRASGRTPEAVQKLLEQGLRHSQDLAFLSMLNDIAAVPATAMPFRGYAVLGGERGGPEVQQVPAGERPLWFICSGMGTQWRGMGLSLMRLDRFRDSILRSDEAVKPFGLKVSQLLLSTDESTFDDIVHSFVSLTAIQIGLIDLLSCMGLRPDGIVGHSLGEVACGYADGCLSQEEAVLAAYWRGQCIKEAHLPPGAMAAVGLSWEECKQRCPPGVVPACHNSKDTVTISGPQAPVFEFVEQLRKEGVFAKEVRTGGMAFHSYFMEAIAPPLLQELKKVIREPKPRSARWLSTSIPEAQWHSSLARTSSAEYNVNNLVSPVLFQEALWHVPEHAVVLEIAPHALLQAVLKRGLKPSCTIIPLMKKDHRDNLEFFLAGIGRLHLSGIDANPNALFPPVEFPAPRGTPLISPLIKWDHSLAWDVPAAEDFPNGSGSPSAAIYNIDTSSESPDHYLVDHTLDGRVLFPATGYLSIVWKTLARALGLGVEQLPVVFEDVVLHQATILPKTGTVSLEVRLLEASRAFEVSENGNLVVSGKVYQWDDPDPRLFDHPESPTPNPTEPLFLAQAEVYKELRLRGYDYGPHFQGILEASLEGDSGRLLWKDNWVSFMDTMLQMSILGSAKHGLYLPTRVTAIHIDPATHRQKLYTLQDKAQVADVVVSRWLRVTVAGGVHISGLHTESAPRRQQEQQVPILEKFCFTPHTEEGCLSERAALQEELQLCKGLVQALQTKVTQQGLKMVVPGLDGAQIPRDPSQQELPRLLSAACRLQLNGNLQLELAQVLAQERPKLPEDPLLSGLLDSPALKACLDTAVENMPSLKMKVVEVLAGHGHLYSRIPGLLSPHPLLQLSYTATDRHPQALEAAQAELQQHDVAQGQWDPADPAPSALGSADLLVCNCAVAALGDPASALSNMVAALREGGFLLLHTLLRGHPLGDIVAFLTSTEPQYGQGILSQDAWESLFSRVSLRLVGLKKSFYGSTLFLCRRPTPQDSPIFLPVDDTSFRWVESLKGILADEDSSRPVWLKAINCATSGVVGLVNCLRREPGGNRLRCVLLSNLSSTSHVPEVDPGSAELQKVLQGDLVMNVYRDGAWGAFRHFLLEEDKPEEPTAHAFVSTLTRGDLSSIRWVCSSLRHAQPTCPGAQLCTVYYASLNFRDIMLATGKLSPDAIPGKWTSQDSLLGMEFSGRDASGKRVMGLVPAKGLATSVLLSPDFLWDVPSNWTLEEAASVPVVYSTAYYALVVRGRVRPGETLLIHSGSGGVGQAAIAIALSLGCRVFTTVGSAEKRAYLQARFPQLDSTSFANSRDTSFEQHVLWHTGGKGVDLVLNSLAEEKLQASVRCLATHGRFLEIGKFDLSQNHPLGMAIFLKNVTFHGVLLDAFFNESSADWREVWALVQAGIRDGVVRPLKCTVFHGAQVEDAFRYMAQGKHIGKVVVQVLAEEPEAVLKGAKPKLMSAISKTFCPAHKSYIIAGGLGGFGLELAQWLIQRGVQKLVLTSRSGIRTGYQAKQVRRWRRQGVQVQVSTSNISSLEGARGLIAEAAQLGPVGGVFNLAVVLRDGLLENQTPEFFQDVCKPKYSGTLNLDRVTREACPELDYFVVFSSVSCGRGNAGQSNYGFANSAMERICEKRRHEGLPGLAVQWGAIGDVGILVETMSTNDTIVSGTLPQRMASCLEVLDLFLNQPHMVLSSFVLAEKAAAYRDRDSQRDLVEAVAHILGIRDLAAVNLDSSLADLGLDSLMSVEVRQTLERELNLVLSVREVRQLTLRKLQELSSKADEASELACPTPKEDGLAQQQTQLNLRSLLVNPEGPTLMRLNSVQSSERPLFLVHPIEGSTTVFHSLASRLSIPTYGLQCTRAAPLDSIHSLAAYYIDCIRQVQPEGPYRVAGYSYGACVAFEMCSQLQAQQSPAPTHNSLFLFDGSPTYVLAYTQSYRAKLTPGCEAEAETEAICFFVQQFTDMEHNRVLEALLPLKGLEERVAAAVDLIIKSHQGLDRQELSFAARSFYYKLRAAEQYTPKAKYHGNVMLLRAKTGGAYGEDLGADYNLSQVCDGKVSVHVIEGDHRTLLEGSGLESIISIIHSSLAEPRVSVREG
Chain of Large T antigen (P03070 whole entry): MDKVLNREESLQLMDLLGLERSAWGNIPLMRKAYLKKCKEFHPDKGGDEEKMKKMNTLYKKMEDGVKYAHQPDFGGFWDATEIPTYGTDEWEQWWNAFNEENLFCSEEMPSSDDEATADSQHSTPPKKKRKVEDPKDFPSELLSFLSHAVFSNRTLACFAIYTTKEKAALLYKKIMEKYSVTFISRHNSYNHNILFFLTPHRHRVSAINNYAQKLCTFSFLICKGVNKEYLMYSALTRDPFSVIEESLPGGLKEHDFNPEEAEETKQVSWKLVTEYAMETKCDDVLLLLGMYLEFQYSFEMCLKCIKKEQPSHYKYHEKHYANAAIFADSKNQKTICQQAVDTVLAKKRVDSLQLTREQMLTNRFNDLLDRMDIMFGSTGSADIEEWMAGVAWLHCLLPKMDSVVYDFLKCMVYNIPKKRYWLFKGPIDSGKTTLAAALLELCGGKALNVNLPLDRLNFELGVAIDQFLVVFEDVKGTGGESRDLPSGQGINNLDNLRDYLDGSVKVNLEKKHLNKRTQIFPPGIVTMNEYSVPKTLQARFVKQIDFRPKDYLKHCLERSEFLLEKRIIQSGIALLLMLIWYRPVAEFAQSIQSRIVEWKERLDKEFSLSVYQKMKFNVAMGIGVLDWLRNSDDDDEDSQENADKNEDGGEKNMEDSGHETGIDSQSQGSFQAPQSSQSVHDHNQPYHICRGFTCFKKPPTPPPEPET
Chain of Induced myeloid leukemia cell differentiation protein Mcl-1 (Q07820 whole entry): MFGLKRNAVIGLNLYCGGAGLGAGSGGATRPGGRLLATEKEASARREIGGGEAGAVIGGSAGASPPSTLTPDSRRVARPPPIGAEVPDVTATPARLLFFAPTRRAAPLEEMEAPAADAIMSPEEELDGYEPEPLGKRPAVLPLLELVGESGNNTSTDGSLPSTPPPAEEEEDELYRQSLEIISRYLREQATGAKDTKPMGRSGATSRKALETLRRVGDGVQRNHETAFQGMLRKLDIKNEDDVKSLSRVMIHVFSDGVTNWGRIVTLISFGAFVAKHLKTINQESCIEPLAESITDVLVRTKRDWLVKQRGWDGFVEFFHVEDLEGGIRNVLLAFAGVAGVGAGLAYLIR
Chain of Eukaryotic translation initiation factor 4E (P63073 whole entry): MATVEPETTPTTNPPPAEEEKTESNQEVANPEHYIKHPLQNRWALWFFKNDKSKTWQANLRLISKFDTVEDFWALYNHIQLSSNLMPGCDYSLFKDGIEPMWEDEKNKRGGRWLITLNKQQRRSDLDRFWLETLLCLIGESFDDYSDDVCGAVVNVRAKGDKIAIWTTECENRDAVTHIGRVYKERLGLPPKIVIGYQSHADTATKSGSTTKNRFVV

Compound: CSC1=NSC2=NC(=O)/C(=C\c3c(C)[nH]c4ccc(C)cc34)C(=N)N12
IC50 [1]: > 50 µM (inactive)

Compound: CCOC(=O)c1c(NC(=O)c2ccc(Br)o2)sc2c1CCCC2
IC50 [1]: > 50 µM (inactive)

Compound: O=C(c1cccc(Cl)c1)N(Cc1cccs1)C1CCS(=O)(=O)C1 (stereo not given)
IC50 [5]: > 100 µM (inactive)

Compound: O=C(NCCc1ccccc1)c1ccc2c(=O)[nH]c3c(C(=O)NCC4CCCO4)sc(=S)n3c2c1 (stereo not given)
IC50 [6]: 16.6 µM (active)

Compound: CN(CC(=O)Nc1ccc(Cl)c(C(F)(F)F)c1)C(=O)C1CC(=O)N(c2ccc3c(c2)OCCO3)C1 (stereo not given)
IC50 [9]: 10.4 µM (active) | IC50 [10]: 11.3 µM (active)

Next, values leading:

IC50 [2]: > 64 µM (inactive) | IC50 [3]: > 47.1 µM (inactive) | EC50 [4]: > 53 µM (inactive)
Compound: Brc1cccc(C2CC(c3ccccc3)n3nnnc3N2)c1 (stereo not given)

IC50 [1]: 4.24 µM (active)
Compound: COC(=O)c1c(NC(=O)c2c(-c3ccccc3Cl)noc2C)sc2c1CCC2

IC50 [7]: 50.8 µM (active) | IC50 [8]: 5.23 µM (active)
Compound: CC(=O)Nc1sc(N/N=C\c2ccco2)nc1-c1cccs1

IC50 [9]: 9.41 µM (active) | IC50 [10]: 8.51 µM (active)
Compound: O=C(NCc1ccco1)/C(=C\c1cccc([N+](=O)[O-])c1)NC(=O)c1ccco1

IC50 [7]: 6.97 µM (active)
Compound: O=C(NC(=S)Nc1ccc(O)cc1)c1ccccc1Cl

IC50 [9]: 4.58 µM (active) | IC50 [10]: 5.62 µM (active)
Compound: O=C(/C=C/c1cccc([N+](=O)[O-])c1)NCCSc1ccccc1

IC50 [7]: 14.5 µM (active) | AC50 [11]: 17.8 µM (inconclusive)
Compound: Nc1ccc(-c2sc(N)nc2-c2ccccc2)cc1

IC50 [7]: 96.9 µM (active)
Compound: C=CCOc1c(CNc2ccc3[nH]c(O)nc3c2)cccc1OC
